Test results from patent US6071907A, “Tricyclic compounds useful as FPT inhibitors” (Schering Corporation, priority 1997, dated 2000).
Where two headings read alike, the source gives them in different places.

Biological target: T1, partially purified rat brain farnesyl protein transferase (FPT) (Rattus norvegicus, UniProt Q02293+Q04631)
T1 construct: partially purified rat brain farnesyl protein transferase (FPT); from tissue; host or cells: rat brain (partially purified enzyme)
Test: FPT IC50 (inhibition of farnesyl protein transferase, in vitro enzyme assay); Ras-CVLS farnesylation
Assay type: biochemical
Protocol: In vitro enzyme assays: FPT IC50 (inhibition of farnesyl protein transferase, in vitro enzyme assay) are determined by the methods disclosed in […] or WO 95/10516.

[1] = in vitro enzyme assay, Ras-CVLS farnesylation, partially purified rat brain FPT, read-out: FPT IC50

| Compound | IC50 [1] [nM] | IC50 [nM] |
| --- | --- | --- |
| CCC1Cc2cc(Cl)cc(Cl)c2C(N2CCN(C(=O)Cc3cc[n+]([O-])cc3)CC2)c2ncc(Br)cc21 (racemic) [Example 3] |  | 6 |
| O=C(CN1CC[S+]([O-])CC1)N1CCC(C2c3ccc(Cl)c(Br)c3CCc3cc(Br)cnc32)CC1 (centres unmarked) [Example 2, 4-[8-Chloro-3,7-dibromo-6,11-dihydro-5H-benzo[5,6]cyclohepta[1,2-b]pyridin-11-yl]-1-(4-thiomorpholinylacetyl)piperidine S-oxide] | 6.8 |  |

More lines, main results first:

| IC50 [1] [nM] | Compound | IC50 [nM] |
| --- | --- | --- |
| 18.6 | O=C(CN1C(=O)c2ccccc2C1=O)N1CCC(C2c3ncc(Br)cc3CCc3cc(Cl)cc(Cl)c32)CC1 (single isomer, unassigned; (+)) [Example 4, (+)-4-(3-bromo-8,10-dichloro-6,11-dihydro-5H-benzo[5,6]cyclohepta[1,2-b]pyridin-11-yl)-1-[2-(1,3-dihydro-1,3-dioxo-2H-isoindol-2-yl)-1-oxoethyl]piperidine] |  |
| 8.9 | O=C(CN1CCSCC1)N1CCC(C2c3ccc(Cl)c(Br)c3CCc3cc(Br)cnc32)CC1 (centres unmarked) [Example 1, 4-[8-Chloro-3,7-dibromo-5,6-dihydro-11H-benzo [5, 6]cyclohepta[1,2-b]pyridin-11-yl]-1-(4-thiomorpholinylacetyl)piperidine] |  |
| 6.8 | CCC(=O)N1CCC(CC(=O)N2CCC([C@H]3c4ncc(Br)cc4CCc4cc(Cl)cc(Br)c43)CC2)CC1 [Example 5, (+)-4-(3,10-Dibromo-8-chloro-6,11-dihydro-5H-benzo[5,6]cyclohepta[1,2-b]pyridin-11 (R)-yl)-1-[(1-oxopropyl-4-piperidinyl)acetyl]piperidine] |  |
